In this experiment the test system is L1210 leukemia ip in BDF1 mice, survival T/C. As to the kind of experiment: NCI In Vivo Anticancer Drug Screen. Data for tumor model L1210 Leukemia (intraperitoneal) in B6D2F1 (BDF1) mice. The note with it: endpoint: mean survival time, higher = longer survival. A digest of the protocol: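 Ratio derived from survival: compound-dosed mice over vehicle-dosed mice, all bearing a transplantable tumor.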

Where [1] appears, read: dose: 100.0 mg/kg/injection, schedule: Q01DX001 (ip), vehicle: carboxymethylcellulose (CMC).
Where [2] appears, read: dose: 200.0 mg/kg/injection, schedule: Q01DX001 (ip), vehicle: carboxymethylcellulose (CMC).
Setting [3] is: dose: 400.0 mg/kg/injection, schedule: Q01DX001 (ip), vehicle: carboxymethylcellulose (CMC).
Setting [4] is: dose: 100.0 mg/kg/injection, schedule: Q04DX002 (ip), vehicle: Klucel (hydroxypropylcellulose) (HPC).
The mark [5] stands for this setting: dose: 100.0 mg/kg/injection, schedule: Q04DX002 (ip), vehicle: saline.
[6] abbreviates: dose: 200.0 mg/kg/injection, schedule: Q04DX002 (ip), vehicle: Klucel (hydroxypropylcellulose) (HPC).
The mark [7] stands for this setting: dose: 400.0 mg/kg/injection, schedule: Q04DX002 (ip), vehicle: Klucel (hydroxypropylcellulose) (HPC).
Setting [8] is: dose: 100.0 mg/kg/injection, schedule: Q04DX002 (ip), vehicle: saline with Tween-80.
Setting [9] is: dose: 200.0 mg/kg/injection, schedule: Q04DX002 (ip), vehicle: saline with Tween-80.
Setting [10] is: dose: 400.0 mg/kg/injection, schedule: Q04DX002 (ip), vehicle: saline with Tween-80.
[11] abbreviates: dose: 100.0 mg/kg/injection, schedule: Q01DX009 (ip), vehicle: Klucel (hydroxypropylcellulose) (HPC).
Setting [12] is: dose: 100.0 mg/kg/injection, schedule: Q04DX003 (ip), vehicle: Klucel (hydroxypropylcellulose) (HPC).
The mark [13] stands for this setting: dose: 200.0 mg/kg/injection, schedule: Q01DX009 (ip), vehicle: Klucel (hydroxypropylcellulose) (HPC).
The mark [14] stands for this setting: dose: 200.0 mg/kg/injection, schedule: Q04DX003 (ip), vehicle: Klucel (hydroxypropylcellulose) (HPC).
Where [15] appears, read: dose: 400.0 mg/kg/injection, schedule: Q04DX003 (ip), vehicle: Klucel (hydroxypropylcellulose) (HPC).
The mark [16] stands for this setting: dose: 100.0 mg/kg/injection, schedule: Q01DX001 (ip), vehicle: Klucel (hydroxypropylcellulose) (HPC).
The mark [17] stands for this setting: dose: 200.0 mg/kg/injection, schedule: Q01DX001 (ip), vehicle: Klucel (hydroxypropylcellulose) (HPC).
The mark [18] stands for this setting: dose: 400.0 mg/kg/injection, schedule: Q01DX001 (ip), vehicle: Klucel (hydroxypropylcellulose) (HPC).

This is an account of results in PubChem BioAssay AID248 (DTP/NCI, 2004).

Several values for one entry are separate records, joined by “and”; a condition that tells them apart may be missing. Equal entries are not always repeated. Toxic doses and inconclusive results are not listed.

In the case of `CC1(C)CC2C(=O)c3ccccc3NC2c2ccccc21` (stereo not given), the T/C by setting is: (dose: 50.0 mg/kg/injection, schedule: Q01DX001 (ip), vehicle: carboxymethylcellulose (CMC)) 96 % of control; under setting [1], 102 % of control; (dose: 100.0 mg/kg/injection, schedule: Q04DX003 (ip), vehicle: acetone) 91 % of control; under setting [2], 98 % of control; (dose: 200.0 mg/kg/injection, schedule: Q04DX003 (ip), vehicle: acetone) 86 % of control; under setting [3], 98 % of control. Also, the T/C (dose: 400.0 mg/kg/injection, schedule: Q04DX003 (ip), vehicle: acetone) was 93 % of control.
As to `C1=NC(c2ccccc2)=CN(C2CCCCCCC2)C1(c1ccccc1)C1CCCCCCC1` (stereo not given), the T/C runs as follows: (dose: 50.0 mg/kg/injection, schedule: Q04DX002 (ip), vehicle: saline) 99 % of control; under setting [4], 95 % of control; under setting [5], 99 % of control; under setting [6], 92 % of control; under setting [7], 92 % of control.
As for `C[CH2][Ge]([CH2]C)[CH2]C.C[CH2][Ge]([CH2]C)[CH2]C.C[CH2][Ge][CH2]C`, the T/C runs as follows: under setting [8], 103 % of control; under setting [9], 95 % of control; under setting [10], 319 % of control.
Consider `CCCCOc1ccc(CC(N)C(=O)O)cc1N(CCCl)CCCl` (stereo not given), for which the T/C is 111 % of control (dose: 6.6 mg/kg/injection, schedule: Q01DX001 (ip), vehicle: carboxymethylcellulose (CMC)); 116 % of control (dose: 10.0 mg/kg/injection, schedule: Q01DX001 (ip), vehicle: carboxymethylcellulose (CMC)); 122 % of control (dose: 10.0 mg/kg/injection, schedule: Q01DX001 (ip), vehicle: saline); 107 % of control (dose: 30.0 mg/kg/injection, schedule: Q01DX001 (ip), vehicle: saline); 102 % of control (dose: 60.0 mg/kg/injection, schedule: Q01DX001 (ip), vehicle: saline); 101 % of control (dose: 90.0 mg/kg/injection, schedule: Q01DX001 (ip), vehicle: saline).
In the case of `Cc1ccc(N=Cc2cc([N+](=O)[O-])ccc2O)cc1`, the T/C was 102 % of control (dose: 87.5 mg/kg/injection, schedule: Q04DX003 (ip), vehicle: Klucel (hydroxypropylcellulose) (HPC)); 92 % of control (dose: 175.0 mg/kg/injection, schedule: Q04DX003 (ip), vehicle: Klucel (hydroxypropylcellulose) (HPC)); 97 % of control (dose: 350.0 mg/kg/injection, schedule: Q04DX003 (ip), vehicle: Klucel (hydroxypropylcellulose) (HPC)).
With `O=C(CI)Nc1ccc(O)c2ccccc12`, the T/C (dose: 3.12 mg/kg/injection, schedule: Q04DX003 (ip), vehicle: water) is 111 % of control and 86 % of control; the T/C (dose: 6.25 mg/kg/injection, schedule: Q01DX009 (ip), vehicle: water) is 99 % of control; the T/C (dose: 6.25 mg/kg/injection, schedule: Q04DX003 (ip), vehicle: water) was 121 % of control and 91 % of control; the T/C (dose: 12.5 mg/kg/injection, schedule: Q01DX009 (ip), vehicle: water) was 86 % of control; the T/C (dose: 75.0 mg/kg/injection, schedule: Q04DX003 (ip), vehicle: water) is 93 % of control.
Turning to `CCOC(=O)c1c(/N=C/c2cc(Br)cc(Br)c2O)sc2c1CCCC2`, the T/C is, setting by setting: under setting [8], 91 % of control; under setting [9], 102 % of control; under setting [10], 105 % of control.
For the molecule `O/N=C1/CCCC/C1=C/C=C/c1ccccc1`, the T/C under setting [11] is 97 % of control; the T/C under setting [12] was 100 % of control; the T/C under setting [13] was 97 % of control; the T/C under setting [14] was 94 % of control; the T/C (dose: 400.0 mg/kg/injection, schedule: Q01DX009 (ip), vehicle: Klucel (hydroxypropylcellulose) (HPC)) was 97 % of control; the T/C under setting [15] is 93 % of control.
With `CN1c2ccccc2C(C)(C)C12C=Cc1cc([N+](=O)[O-])cc([N+](=O)[O-])c1O2` (stereo not given), the T/C is 105 % of control under setting [16], 105 % of control under setting [17] and 97 % of control under setting [18].
With `Cc1ccc(OC/C=C/CSc2ccc(C)cc2)cc1`, the T/C under setting [16] is 98 % of control; the T/C under setting [12] was 101 % of control; the T/C under setting [17] was 94 % of control; the T/C under setting [14] is 97 % of control; the T/C under setting [18] is 94 % of control; the T/C under setting [15] was 95 % of control.
On to `CC(=O)Nc1ccc(Cl)cc1C(=O)c1ccccc1`, for which the T/C under setting [4] is 96 % of control, the T/C under setting [6] was 108 % of control and the T/C under setting [7] is 96 % of control.
For the molecule `O=C(O)Cc1ccc2ccccc2c1`, the T/C reads like this: (dose: 50.0 mg/kg/injection, schedule: Q01DX001 (ip), vehicle: saline) 101 % of control; (dose: 100.0 mg/kg/injection, schedule: Q01DX001 (ip), vehicle: saline) 103 % of control; (dose: 200.0 mg/kg/injection, schedule: Q01DX001 (ip), vehicle: saline) 107 % of control; (dose: 400.0 mg/kg/injection, schedule: Q01DX001 (ip), vehicle: saline) 103 % of control.
Regarding `CCOC(=O)c1cc([N+](=O)[O-])c(C)s1`, the T/C (dose: 100.0 mg/kg/injection, schedule: Q01DX009 (sc), vehicle: olive oil, sesame oil, peanut oil) is 104 % of control; the T/C (dose: 100.0 mg/kg/injection, schedule: Q04DX003 (sc), vehicle: olive oil, sesame oil, peanut oil) was 101 % of control; the T/C (dose: 200.0 mg/kg/injection, schedule: Q01DX009 (sc), vehicle: olive oil, sesame oil, peanut oil) was 95 % of control; the T/C (dose: 200.0 mg/kg/injection, schedule: Q04DX003 (sc), vehicle: olive oil, sesame oil, peanut oil) is 107 % of control; the T/C (dose: 400.0 mg/kg/injection, schedule: Q01DX009 (sc), vehicle: olive oil, sesame oil, peanut oil) is 90 % of control; the T/C (dose: 400.0 mg/kg/injection, schedule: Q04DX003 (sc), vehicle: olive oil, sesame oil, peanut oil) is 106 % of control.
Take `O=S(=O)(O)C(O)c1ccccc1` (stereo not given): the T/C under setting [5] is 97 % of control; the T/C (dose: 200.0 mg/kg/injection, schedule: Q04DX002 (ip), vehicle: saline) is 100 % of control; the T/C (dose: 400.0 mg/kg/injection, schedule: Q04DX002 (ip), vehicle: saline) is 103 % of control.
With `CC1CC2C3CC(F)C4=CC(=O)C=CC4(C)C3(F)C(O)CC2(C)C1(O)C(=O)COC(=O)C(C)(C)C` (stereo not given), the T/C was 106 % of control (dose: 100.0 mg/kg/injection, schedule: Q01DX001 (ip), vehicle: steriod suspending solution); 95 % of control (dose: 200.0 mg/kg/injection, schedule: Q01DX001 (ip), vehicle: steriod suspending solution); 95 % of control (dose: 400.0 mg/kg/injection, schedule: Q01DX001 (ip), vehicle: steriod suspending solution).
For the molecule `COCCNC(=O)Nc1cccc2c1CCCC2`, the T/C runs as follows: (dose: 100.0 mg/kg/injection, schedule: Q01DX009 (ip), vehicle: saline with Tween-80) 97 % of control; (dose: 200.0 mg/kg/injection, schedule: Q01DX009 (ip), vehicle: saline with Tween-80) 99 % of control; (dose: 400.0 mg/kg/injection, schedule: Q01DX009 (ip), vehicle: saline with Tween-80) 103 % of control.
Take `CSc1nnc2c3ccccc3ccn12`: the T/C was 104 % of control under setting [1], 96 % of control under setting [2] and 93 % of control under setting [3].
As to `COc1ccc([N+](=O)[O-])cc1NC(=O)N(c1ccccc1)C(C)C`, the T/C runs as follows: (dose: 50.0 mg/kg/injection, schedule: Q01DX009 (ip), vehicle: Klucel (hydroxypropylcellulose) (HPC)) 101 % of control; under setting [11], 107 % of control; under setting [13], 86 % of control.
